{"source": "paper PMC9430692", "about": "“BRET-Based Self-Cleaving Biosensors for SARS-CoV-2 3CLpro Inhibitor Discovery” (Microbiology Spectrum, 2022)", "origin": "cited, not measured here", "system": "SARS-CoV-2", "settings": "Vero E6 cells, MOI 0.01; ref [8]; read-out: Reported EC50 against SARS-CoV-2", "data": [{"compound": "CC(C)(C)NC(=O)N[C@H](C(=O)N1C[C@H]2[C@@H]([C@H]1C(=O)NC(CC1CCC1)C(=O)C(N)=O)C2(C)C)C(C)(C)C", "note": "(stereo partly shown) [Boceprevir]", "values": [{"measurement": "EC50", "result": 15.6, "unit": "µM"}]}]}
